Entries after “also recorded” stand apart in the source; their conditions may differ.
How the values were obtained:
[1] = system: 4T1 experimental metastases; test: 4T1 model of experimental metastasis (intracardiac injection); assay type: in vivo, mouse; conditions: 4T1 cells injected into left ventricle of the heart
Text: 1D11 was combined with paclitaxel in both a xenograft (MDA-MB-231) breast cancer model and the syngeneic 4T1 model of breast cancer. […] The MDA-MB-231 and 4T1 models were also used to test combinatorial therapies with 1D11 and the platinum compounds cisplatin or carboplatin.

[2] = Study 2 (09-3494): toxicity observations; assay type: in vivo, Balb/c mice; conditions: ixabepilone 3 mg/kg, capecitabine 360 mg/kg, antibody 10 mg/kg
subcutaneous 4T1 tumors [3] = test: Study 1 (09-3493): primary tumor growth, survival and time to endpoint in the syngeneic SQ 4T1 model; conditions: for effect on SQ 4T1 primary tumor growth: antibody 10 mg/kg IP 3x/week, ixabepilone 6 mg/kg IV Q4Dx3, capecitabine 360 mg/kg oral QDx14
Text: • Time points: Day 0: Investigators inject 50,000 4T1 cells+[…] ® subcutaneously in the right flank • Day 3: Investigators begin 2-3×/week tumor measurements • Day 6: DCM Staff begin antibody dosing IP 3×/week • DCM Staff begin ixabepilone dosing IV Q4D×3 • DCM Staff begin capecitabine dosing by oral gavage QD×14 • Animals were sacrificed when the primary tumors reached a volume of 2000 mm^3 or prior to the study takedown if they presented with moribund conditions (lack of grooming, labored breathing, cachexia, anorexia, or lethargy).
On Day 0, 150 twelve week-old female BALB/c mice each received subcutaneous injections of 50,000 4T1 cells in […] ® in the right flank. Tumor-bearing mice were routinely monitored and regular tumor measurements 2-3×/week were conducted beginning on Day 6. Tumor volume was determined using the following formula: Tumor Volume=Length×Width^2×0.52
Six days after tumor cell injection, when tumor volumes averaged 80 mm^3, the animals were size-matched and divided into twelve treatment groups of ten mice each. […] At this point investigators were blinded to treatment group designations and therapeutic administration was initiated. All mice received 10 mg/kg of either 1D11, 13C4 or antibody vehicle administered in 100 μl IP three times per week (Table 1). Specific cohorts of mice received additional treatments of ixabepilone (6 mg/kg in 200□1 IV Q4D×3), capecitabine (360 mg/kg in 100 μl by oral gavage QD×14) or both.
Mice were sacrificed once primary tumor volumes reached 2000 mm^3 or greater or if the tumors became ulcerated>20% of the tumor's surface area, or if the animals presented with moribund conditions (lack of grooming, labored breathing, cachexia, anorexia or lethargy). Upon sacrifice, gross necropsies were performed and tumors, lungs and other tissues bearing metastases were harvested.

subcutaneous 4T1 tumors [4] = test: Study 3 (09-4255): primary tumor growth in the SQ 4T1 model; assay type: in vivo, BALB/c mice; conditions: for effect on SQ 4T1 primary tumor growth: antibody IP 3x/week, ixabepilone 3 mg/kg IV every four days x3, capecitabine 360 mg/kg oral 14 days; for day cohort reached size endpoint (mean tumor volume 1500 mm^3): per cohort
Text: The remaining 30 animals were included into a companion experiment to this study, looking for the effects of 1D11 on macrophage recruitment and activity (see below).
An entire cohort of mice was sacrificed when the average tumor volume for a single group within that cohort reached […] or greater.

subcutaneous 4T1 tumors [5] = test: Study 2 (09-3494): primary tumor growth in the SQ 4T1 model; assay type: in vivo, Balb/c mice; conditions: for effect on SQ 4T1 primary tumor growth / tumor volume: antibody 10 mg/kg IP 3x/week, ixabepilone 3 mg/kg IV Q4Dx3, capecitabine 360 mg/kg oral QDx14, to Day 23
Text: Treatment groups, time points, and tissues were similar to the study described above.
For proper analysis of metastasis, all mice were sacrificed on study Day 23. […] The primary tumor was bisected, with one half frozen in OCT and the other half stored in RNALATER™ for qPCR analysis. The lungs were fixed in zinc-buffered formalin for enumeration of pulmonary mets and subsequent IHC analysis.

[6] = Study 1 (09-3493): treatment-related adverse events; assay type: in vivo; conditions: ixabepilone 6 mg/kg, capecitabine 360 mg/kg, antibody 10 mg/kg
Text: • Time points: Day 0: Investigators inject 50,000 4T1 cells+[…] ® subcutaneously in the right flank • Day 3: Investigators begin 2-3×/week tumor measurements • Day 6: DCM Staff begin antibody dosing IP 3×/week • DCM Staff begin ixabepilone dosing IV Q4D×3 • DCM Staff begin capecitabine dosing by oral gavage QD×14 • Animals were sacrificed when the primary tumors reached a volume of 2000 mm^3 or prior to the study takedown if they presented with moribund conditions (lack of grooming, labored breathing, cachexia, anorexia, or lethargy). After sacrifice, the primary tumor was halved with one half embedded in OCT, and the other placed in zinc buffered formalin. The lungs and any other tissues bearing metastases were harvested and stored in zinc buffered formalin for enumeration of lung mets and IHC. • Tissues: Primary tumors m OCT and zinc buffered formalin, lungs harvested in zinc buffered formalin for assessment of metastasis and subsequent IHC.
Mice were sacrificed once primary tumor volumes reached 2000 mm^3 or greater or if the tumors became ulcerated>20% of the tumor's surface area, or if the animals presented with moribund conditions (lack of grooming, labored breathing, cachexia, anorexia or lethargy). Upon sacrifice, gross necropsies were performed and tumors, lungs and other tissues bearing metastases were harvested. […]

SMILES	inhibition of metastases [1]	toxicity during dosing [2]	effect on SQ 4T1 primary tumor growth (subcutaneous 4T1 tumors [3])	survival (subcutaneous 4T1 tumors [3]; same dosing, sacrifice at tumor volume 2000 mm^3 or moribund)	effect on SQ 4T1 primary tumor growth (subcutaneous 4T1 tumors [4])	day cohort reached size endpoint (mean tumor volume 1500 mm^3) (subcutaneous 4T1 tumors [4])	effect on SQ 4T1 primary tumor growth / tumor volume (subcutaneous 4T1 tumors [5])	treatment-related toxicities [6]	average size of the tumors at the time of study take down (subcutaneous 4T1 tumors [5]; Day 23, average of cohort (vehicle, 13C4 or 1D11 plus the chemotherapeutic))
N.N.[Cl][Pt][Cl] [cisplatin]	able to inhibit metastases particularly to the bone								
C/C(=C\c1csc(C)n1)[C@@H]1C[C@@H]2O[C@]2(C)CCC[C@H](C)[C@H](O)[C@@H](C)C(=O)C(C)(C)[C@@H](O)CC(=O)N1 [ixabepilone]		no toxicity issues observed; also recorded: no animals in the study displayed signs of toxicity	most efficacious at inhibiting 4T1 tumor growth compared to either antibody therapy or capecitabine; also recorded: Inhibition of tumor growth	greater than that of either the antibody or the capecitabine cohorts	most efficacious at inhibiting 4T1 tumor growth as a monotherapy; also recorded: Inhibition of tumor growth	29 study day	significant reduction in tumor volume; also recorded: Inhibition of tumor growth	some peripheral neuropathy	
CCCCCOC(=O)Nc1nc(=O)n([C@@H]2O[C@H](C)[C@@H](O)[C@H]2O)cc1F [capecitabine]		no toxicity issues observed	did inhibit tumor growth; also recorded: Inhibition of tumor growth; also recorded: inhibited 4T1 tumor growth but was not as efficacious as ixabepilone		very modest tumor growth inhibition; also recorded: Inhibition of tumor growth; also recorded: inhibited 4T1 tumor growth slightly	27 study day	trend towards inhibited growth of the primary tumors; also recorded: Inhibition of tumor growth		~700 mm^3
